Measured values reported in US20020198373A1, “PARTICULATE DRUG CARRIERS” (priority 1997, published 2002).

Tested on: human erythrocytes
Assay: Haemocompatibility study (haemolysis)
Type: cell-based
Conditions: erythrocyte, 5 h, relative to triton X-100 100% and PBS 0%
Procedure: Freshly drawn human blood was centrifuged (3,000 g) to separate the red blood cells. These were washed in PBS (pH=7.4) and weighed. 3 g of the erythrocyte pellet was dispersed in 100 mL PBS (pH=7.4) and incubated for 5 h with various concentrations of GCP41, cholesterol vesicles prepared as described above or DOTAP vesicles (Sigma Chemical Co., UK). Haemolysis was assessed by centrifugation (3,000 g) to isolate the released haemoglobin, addition of 2×volume of isopropanol to the supernatant and the measurement of the absorbance (570 nm).

## CCCCCCCC/C=C\CCCCCCCC(=O)OCC(C[N+](C)(C)C)OC(=O)CCCCCCC/C=C\CCCCCCCC.COS(=O)(=O)[O-] (centres unmarked) [DOTAP, N-[1-(2,3-dioleoyloxy)propyl]-N,N,N-trimethylammonium methylsulphate]
DOTAP ratio 30
  % Haemolysis (n = 3): 101.4 ± 20.4%
DOTAP ratio 300
  % Haemolysis (n = 3): 71.0 ± 10.6%
